Columns and labels:
[1] = system: human FGFR4-1c chimera/KLB; assay: Agonist pERK AlphaScreen assay in BaF3 cells, FGFR4-1c chimera/KLB; type: cell-based; conditions: BaF3 cells co-expressing KLB and FGFR4-1c chimera; 15 min at 37° C; n = 3
Description: (§1) For generating receptor specific BaF3 cell line, human FGFR1c cDNA was cloned into pMXs-IRES-Puro vector (Cell Biolabs) to generate the expression plasmid pMX-FGFR1c-IRES-Puro. Human FGFR4 sequence was re-engineered to enhance signaling by constructing chimeric cDNA encoding the extracellular region of FGFR4 fused to the intracellular region and tyrosine kinase domain of FGFR1c, and the chimeric sequence was cloned into pMX-IRES-Puro vector to generate the expression plasmid pMX-chimeric FGFR4-1c-IRES-Puro. Human KLB cDNA was cloned into pMXs-IRES-Neo vector (Cell Biolabs) to generate expression plasmid pMX-KLB-IRES-Neo. BaF3 cells were transfected with pMX-FGFR1c-IRES-Puro and pMX- FGFR4-1c chimera-IRES-Puro expression plasmids respectively by electroporation (Xcell machine, Bio-Rad, 950 μF, 370V). Cells were selected with media containing 1 μg/ml Puromycin for 10–12 days. […]
(§2) 293T HEK cells expressing KLB (or KL) or Hep3B cells were plated to 5–6 x 10^4 cells/well density in 96-well cell culture plate coated with poly-D-Lysine (Corning). […] Phosphorylated ERK1/2 (pERK) levels were subsequently recorded by EnSpire Alpha or Envision Multilabel plate reader (Perkin Elmer). […]
(§3) All cellular phosphorylation data were analyzed using 3-parameter non-linear regression curve in GraphPad Prism 7. […]

[2] = system: human FGFR1/KLB; assay: Agonist pERK AlphaScreen assay in BaF3 cells, FGFR1/KLB; type: cell-based; conditions: BaF3 cells co-expressing KLB and FGFR1; 15 min at 37° C; n = 3
Description: as §1, §2, §3

[3] = system: Hep3B cells; assay: Agonist pERK AlphaLISA assay in Hep3B cells; type: cell-based, human; conditions: 10 min at 37° C, n = 3
Experimental: 293T HEK cells expressing KLB (or KL) or Hep3B cells were plated to 5–6 x 10^4 cells/well density in 96-well cell culture plate coated with poly-D-Lysine (Corning). The cells were serum starved for four hours in 0.1% BSA fraction V (ThermoFisher) containing media prior to treatment with protein and/or an antagonist peptide at the mentioned concentrations for 10 min at 37° C. For the antagonist assays, a chosen fixed dose within the range of 0.8–30 nM (depending on the cell type) of FGF21 or FGF19 stimulant was added to all the wells. BaF3 cells expressing human KLB/FGFR1c or human KLB/FGFR4-1c chimera were seeded at 5 × 10^5 cells/well density in 96-well cell culture plate and serum-starved overnight. FGF21/19 analogs were diluted in 0.02% Tween-20 containing RPMI1640 medium and the cells were treated for 15 min at 37° C. […] Phosphorylated ERK1/2 (pERK) levels were subsequently recorded by EnSpire Alpha or Envision Multilabel plate reader (Perkin Elmer). […]
(§4) All cellular phosphorylation data were analyzed using 3-parameter non-linear regression curve in GraphPad Prism 7. […] Each peptide and protein analog was tested in triplicates in three independent experiments (n = 3), and normalized graphs plotted are expressed as mean ± SD unless otherwise noted.

[4] = system: 293/KLB cells; assay: Agonist pERK AlphaLISA assay in 293/KLB cells; type: cell-based, human; conditions: 10 min at 37° C, n = 3
Experimental: 293T HEK cells expressing KLB (or KL) or Hep3B cells were plated to 5–6 x 10^4 cells/well density in 96-well cell culture plate coated with poly-D-Lysine (Corning). The cells were serum starved for four hours in 0.1% BSA fraction V (ThermoFisher) containing media prior to treatment with protein and/or an antagonist peptide at the mentioned concentrations for 10 min at 37° C. For the antagonist assays, a chosen fixed dose within the range of 0.8–30 nM (depending on the cell type) of FGF21 or FGF19 stimulant was added to all the wells. BaF3 cells expressing human KLB/FGFR1c or human KLB/FGFR4-1c chimera were seeded at 5 × 10^5 cells/well density in 96-well cell culture plate and serum-starved overnight. FGF21/19 analogs were diluted in 0.02% Tween-20 containing RPMI1640 medium and the cells were treated for 15 min at 37° C. Following the respective cell treatments, the cells were lysed (with lysis buffer provided in the kit) for 10 min at room temperature on a shaker and the lysate was mixed with reaction mixture (consisting of reaction buffer, activation buffer, acceptor and donor beads provided in the kit). Phosphorylated ERK1/2 (pERK) levels were subsequently recorded by EnSpire Alpha or Envision Multilabel plate reader (Perkin Elmer). The cell assays corresponding to 293/KLB or Hep3B cells were carried out with AlphaLISA SureFire Ultra pERK1/2 (Thr 202/Tyr204) kit (Perkin Elmer), and BaF3 cells were done using AlphaScreen pERK1/2 (Thr202/Tyr204) kit (Perkin Elmer).
as §4, with “7. Graphs are represented as relative maximal (100%) response of the positive control. All other test analog signals were adjusted accordingly as % values.” for “7.”

FGF19,A^194: FGF19 analog with single C-terminal lysine substitution to alanine
pERK agonist activity, in words [1]: no change in bioactivity
pERK agonist activity, in words [2]: enhanced signaling at the FGFR1/KLB complex by approximately ten-fold
pERK agonist activity, in words [3]: comparable
pERK agonist activity, in words [4]: nearly tenfold more active than FGF19
